According to patent US10106577B2, “Agonists of neurotrophin receptors and their use as medicaments” (BIONURE FARMA, S.L., priority 2010, dated 2018):

Experiments:
STAT-1 = experiment: Luminex signalling assay in SH-SY5Y; format: cell-based, human; conditions: G79 100 ng/ml and 20 μg/ml, BDNF 20 ng/ml; 30 min, 1 h, 2 h, 6 h
Description: (§1) The human neuroblastoma cell line SH-SY5Y was used to perform Luminex signalling assays using the 10-Plex MAPK/SAPK Signaling Kit-Phosphoprotein (Millipore). This cell line expresses the TrkB receptor and the MAPK/SAPK signalling pathway is typically activated by the tyrosinkinase receptors. The phosphoprotein antibodies included into the kit are the following: ERK/MAP kinase (Thr185/Tyr187); STAT-1 (Tyr701); JNK (Thr183/Tyr185); MEK-1 (Ser212); ATF-2 (Thr69/71); p53 (Ser15); HSP27 (Ser78); c-Jun (Ser73); p38 (Thr180/Tyr182), p70 S6 kinase (Thr412); IkBα (Ser32) (purchased from Millipore).
(§2) The cells were propagated and then seeded into 24-well plates (30.000 cell/well). After 24 hours, the cells were treated with two different concentrations of NGF-receptor agonist G79: 100 ng/ml and 20 μg/ml. After adding G79 into the medium, the cells were collected in the lysis buffer of the kit at the following time points: 30 min, 1 h, 2 h, and 6 h. The assay was performed in this way to assess both time and dose effects comparing the treated samples with the untreated cells used as negative controls (unstimulated SH-SY5Y cells). BDNF was used as positive control at the concentration 20 ng/ml, which is the best working concentration known in literature. In the Luminex plate, each sample was added into a well in duplicate. After adding all the samples, the specific positive and negative controls of phosphorilation, included in the Luminex kit, were added. The assay buffer was also added in duplicate, as a background controls.
(§3) In the circles are the activated factors, while in the grey circles are the tested factors. Its effects of the SY-SY5Y cell line in the phosphorilation of several pathways were assessed using xMAP assay from Luminex. […] The levels of activation are expressed as Median Fluorescence Intensity (MFI).

ATF-2 = experiment: Luminex signalling assay in SH-SY5Y; format: cell-based, human; conditions: G79 100 ng/ml and 20 μg/ml, BDNF 20 ng/ml; 30 min, 1 h, 2 h, 6 h
Description: as §1, §2, §3

HSP-27 = experiment: Luminex signalling assay in SH-SY5Y; format: cell-based, human; conditions: G79 100 ng/ml and 20 μg/ml, BDNF 20 ng/ml; 30 min, 1 h, 2 h, 6 h
Description: as §1, §2, §3

JNK = experiment: Luminex signalling assay in SH-SY5Y; format: cell-based, human; conditions: G79 100 ng/ml and 20 μg/ml, BDNF 20 ng/ml; 30 min, 1 h, 2 h, 6 h
Description: as §1, §2, §3

[1] = PAMPA model of passive BBB permeability; format: in vitro ADME; conditions: passive transport
Method: PAMPA is used as an in vitro model of passive BBB permeability. An artificial membrane immobilized on a filter is placed between a donor and acceptor compartment. At the start of the test, a drug is introduced in the donor compartment. Following the permeation period, the concentration of the drug in the donor and acceptor compartments are measured using UV spectroscopy. Therefore the permeability of any compound with a UV chromophore can be determined by this method.
The tested compound stock solutions were diluted 200-fold in universal buffer at pH 7.4 and added to the donor wells. The filter membrane was coated with PBL in dodecane and the acceptor well was filled with pH 7.4 buffer. The acceptor filter plate was carefully put on the donor plate to form a ‘sandwich’ (consisting of the aqueous donor with test the compound on the bottom, an artificial lipid membrane in the middle, and an aqueous acceptor on the top). The test compound diffused from the donor well through the lipid membrane and into the acceptor well. The ‘sandwich’ was left undisturbed for 18 hrs while the permeation occurred. The concentration of the test compound in the acceptor, the donor, and the reference wells was determined using the UV plate reader. Effective permeability (Pe) of each compound was calculated by using the pION PSR4p software. Samples were analyzed in triplicate and the average of the three runs was reported. Quality control standards were run with each sample set to monitor the consistency of the analysis set.

TrkA = target: T1, TrkA (Rattus norvegicus, UniProt P35739); experiment: Cytometry binding assay in PC12 with antibody anti-p75; conditions: pre-incubation with the antibody anti-p75; growing NGF
T1 construct: PC12 cells expressing both TrkA and p75 receptors were cultivated in normal growth medium; endogenous in cells; host or cells: PC12
T1 sequence (P35739 33-799): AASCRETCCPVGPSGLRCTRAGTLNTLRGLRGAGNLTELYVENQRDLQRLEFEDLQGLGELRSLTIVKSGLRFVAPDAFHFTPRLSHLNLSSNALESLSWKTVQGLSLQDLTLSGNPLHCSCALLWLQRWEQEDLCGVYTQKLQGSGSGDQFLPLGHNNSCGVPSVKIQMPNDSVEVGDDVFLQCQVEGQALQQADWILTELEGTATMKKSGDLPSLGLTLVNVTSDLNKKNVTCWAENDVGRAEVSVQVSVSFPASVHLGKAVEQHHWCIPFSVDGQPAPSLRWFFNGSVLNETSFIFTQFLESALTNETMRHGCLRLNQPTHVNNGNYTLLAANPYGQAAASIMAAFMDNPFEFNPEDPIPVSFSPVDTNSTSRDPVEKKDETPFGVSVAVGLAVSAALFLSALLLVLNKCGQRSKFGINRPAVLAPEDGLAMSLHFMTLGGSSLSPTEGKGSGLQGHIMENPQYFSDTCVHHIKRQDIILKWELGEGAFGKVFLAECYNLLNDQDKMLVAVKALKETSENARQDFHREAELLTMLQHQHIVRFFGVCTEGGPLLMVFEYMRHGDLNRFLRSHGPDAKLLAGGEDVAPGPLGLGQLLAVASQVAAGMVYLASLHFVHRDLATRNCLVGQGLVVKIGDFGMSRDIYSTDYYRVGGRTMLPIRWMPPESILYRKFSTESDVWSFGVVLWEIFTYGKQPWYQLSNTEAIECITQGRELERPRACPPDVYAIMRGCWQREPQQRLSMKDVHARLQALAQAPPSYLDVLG
Method: (§4) In order to assess the binding of G79 to the TrkA (PC12 cells) and TrkB receptors (SH-SY5Y), we performed competitive binding assays by flow cytometry. In order to assess the binding competition between p75 and TrkA, PC12 cells expressing both TrkA and p75 receptors were cultivated in normal growth medium. After detaching cells by trypsin solution, 200,000 cells/well were added to tubes for the following incubations. One tube contains control untreated cells. In the other tubes, cells were pre-incubated for 45 minutes with different concentrations of NGF (0-10-20-50-100 ng/ml), that can directly bind both TrkA and p75 receptors, blocking the possible binding of G79 if it competes for the same receptors. Then, without washing the cells, G79 conjugated with FITC fluorescence (100 ng/ml) was added and so incubated the cells for 1 hour. Samples were read in a cytometer (FCAScan).
(§5) To detect the binding separately on both receptors, a prior incubation of cells (before NGF incubation) with blocking antibodies was made. The cells were preincubated for 1 hour with blocking antibody anti-p75 (1:100; Chemicon Int.), to detect the binding on TrkA, or blocking antibody anti-TrkA (1:200; AbCam) to detect the binding on p75. […] All the results are expressed as mean channel fluorescence (MCF), which is a measure of the cell surface fluorescence produced by G79-FITC binding.

[2] = test system: NGF-receptors (TrkA and p75) on PC12 cells; experiment: Cytometry binding assay, competition NGF/G79-FITC in PC12; conditions: G79-FITC 100 ng/ml; NGF 0-10-20-50-100 ng/ml
Method: as §4, §5

p75 receptor = target: T2, p75 receptor (Rattus norvegicus, UniProt P07174); experiment: Cytometry binding assay in PC12 with anti-TrkA antibody; conditions: cells pre-incubated with anti-TrkA antibody; growing NGF
T2 construct: PC12 cells expressing both TrkA and p75 receptors were cultivated in normal growth medium; endogenous in cells; host or cells: PC12
T2 sequence (P07174 30-425): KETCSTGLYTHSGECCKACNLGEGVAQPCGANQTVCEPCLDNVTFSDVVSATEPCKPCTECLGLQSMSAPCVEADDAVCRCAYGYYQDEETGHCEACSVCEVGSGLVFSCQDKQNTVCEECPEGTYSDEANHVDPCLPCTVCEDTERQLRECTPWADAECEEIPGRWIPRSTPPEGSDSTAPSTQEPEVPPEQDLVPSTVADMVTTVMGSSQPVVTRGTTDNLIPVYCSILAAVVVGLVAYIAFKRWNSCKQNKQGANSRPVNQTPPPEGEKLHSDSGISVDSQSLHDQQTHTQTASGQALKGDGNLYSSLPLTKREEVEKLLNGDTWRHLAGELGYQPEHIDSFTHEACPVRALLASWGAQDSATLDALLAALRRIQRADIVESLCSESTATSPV
Method: as §4, §5

CC(C)CN(CC(=O)N(CCCN1CCCC1=O)CC(N)=O)C(=O)CNCCc1ccccc1F [Compound G79, [N-(2-(2′-Fluorophenyl)ethyl)glycyl]-[N-(2-methylpropyl)glycyl]-N-[3-(2′-oxopyrrolidinyl)propyl]glycinamide]
STAT-1 phospho-activation (MFI) compared to unstimulated control (STAT-1): significantly activated at 6 h after G79 treatment (20 μg/ml) | ATF-2 phospho-activation (MFI) compared to unstimulated control (ATF-2): significantly activated at 6 h after G79 treatment (20 μg/ml) | HSP-27 phospho-activation (MFI) compared to unstimulated control (HSP-27): significantly activated at 1 h after G79 treatment (both at 20 μg/ml and 100 ng/ml) | JNK phospho-activation (MFI) compared to unstimulated control (JNK): significantly activated at 6 h after G79 treatment (both at 20 μg/ml and 100 ng/ml) | crossing the BBB in the PAMPA model (in words) [1]: unable to cross the BBB in the PAMPA model | binding on TrkA (MCF of G79-FITC) (TrkA): apparently does not compete with NGF for the binding on TrkA | competition with NGF for binding (MCF of G79-FITC) [2]: competes for the binding on the same NGF-receptors | binding on p75 (MCF of G79-FITC) (p75 receptor): could bind on p75 receptor
